In ChEMBL document CHEMBL1136167, “Prediction of hERG potassium channel affinity by traditional and hologram qSAR methods” (Bioorg Med Chem Lett, 2003):

Molecular target: T1, Voltage-gated inwardly rectifying potassium channel KCNH2 (Homo sapiens, UniProt Q12809)
Experiment: Inhibition of K+ channel activity in mammalian cells expressing HERG Kv11.1
Assay type: cell-based
Settings: not given

T1 sequence (Q12809 whole entry): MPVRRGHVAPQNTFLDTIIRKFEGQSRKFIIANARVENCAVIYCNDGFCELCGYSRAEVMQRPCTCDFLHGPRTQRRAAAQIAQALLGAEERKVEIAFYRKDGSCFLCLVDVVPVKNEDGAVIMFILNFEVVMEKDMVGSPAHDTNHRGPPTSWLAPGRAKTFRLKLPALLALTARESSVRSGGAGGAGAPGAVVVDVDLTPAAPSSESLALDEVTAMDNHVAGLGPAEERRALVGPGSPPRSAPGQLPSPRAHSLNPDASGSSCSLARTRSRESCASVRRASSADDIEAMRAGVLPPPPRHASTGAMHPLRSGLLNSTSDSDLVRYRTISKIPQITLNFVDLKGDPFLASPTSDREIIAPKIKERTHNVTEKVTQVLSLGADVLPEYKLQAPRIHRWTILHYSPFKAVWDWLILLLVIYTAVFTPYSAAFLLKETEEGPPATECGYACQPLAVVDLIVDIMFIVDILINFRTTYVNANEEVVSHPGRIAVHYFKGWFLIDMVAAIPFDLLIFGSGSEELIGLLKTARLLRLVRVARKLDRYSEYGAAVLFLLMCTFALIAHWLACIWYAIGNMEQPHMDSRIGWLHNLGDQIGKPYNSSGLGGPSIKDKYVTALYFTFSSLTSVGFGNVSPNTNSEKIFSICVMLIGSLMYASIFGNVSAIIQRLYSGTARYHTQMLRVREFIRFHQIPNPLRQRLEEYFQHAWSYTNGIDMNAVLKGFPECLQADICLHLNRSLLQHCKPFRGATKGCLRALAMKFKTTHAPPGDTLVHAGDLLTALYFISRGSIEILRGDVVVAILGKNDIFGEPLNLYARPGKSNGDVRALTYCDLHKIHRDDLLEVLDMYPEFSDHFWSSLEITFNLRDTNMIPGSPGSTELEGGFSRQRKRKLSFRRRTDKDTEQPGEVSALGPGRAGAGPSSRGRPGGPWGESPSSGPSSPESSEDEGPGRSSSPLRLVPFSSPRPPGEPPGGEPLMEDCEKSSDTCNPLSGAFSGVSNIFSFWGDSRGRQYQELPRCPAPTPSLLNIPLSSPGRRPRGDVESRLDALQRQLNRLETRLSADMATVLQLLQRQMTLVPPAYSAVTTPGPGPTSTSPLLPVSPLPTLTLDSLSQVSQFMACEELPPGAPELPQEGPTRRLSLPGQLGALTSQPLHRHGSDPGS

Compound	IC50
CC[C@H]1OC(=O)[C@H](C)[C@@H](O[C@H]2C[C@@](C)(OC)[C@@H](O)[C@H](C)O2)[C@H](C)[C@@H](O[C@@H]2O[C@H](C)C[C@H](N(C)C)[C@H]2O)[C@](C)(OC)C[C@@H](C)C(=O)[C@H](C)[C@@H](O)[C@]1(C)O [CLARITHROMYCIN]	33.1 µM

Molecular target: T1, Voltage-gated inwardly rectifying potassium channel KCNH2
Experiment: Inhibition of human Potassium channel HERG expressed in mammalian cells
Settings: not given

Compound	IC50
Oc1ccc(CCN2CCC(Nc3nc4ccccc4n3Cc3ccc(F)cc3)CC2)cc1 [DESMETHEYLASTEMIZOLE]	0.001 µM
CC[C@H]1OC(=O)[C@H](C)[C@@H](O[C@H]2C[C@@](C)(OC)[C@@H](O)[C@H](C)O2)[C@H](C)[C@@H](O[C@@H]2O[C@H](C)C[C@H](N(C)C)[C@H]2O)[C@](C)(OC)C[C@@H](C)C(=O)[C@H](C)[C@@H](O)[C@]1(C)O [CLARITHROMYCIN]	58.9 µM
CCOC(=O)C1=C(C)NC(C)=C(C(=O)OC)C1c1cccc([N+](=O)[O-])c1 (centres undefined) [NITRENDIPINE]	10 µM
Cc1cc2c(s1)Nc1ccccc1N=C2N1CCN(C)CC1 [OLANZAPINE]	0.182 µM
CN1CCC[C@H]1c1cccnc1 [NICOTINE]	245 µM
COc1c(N2CCNC(C)C2)c(F)cc2c(=O)c(C(=O)O)cn(C3CC3)c12 (centres undefined) [GATIFLOXACIN]	129 µM
O=C(O[C@H]1C[C@@H]2C[C@@H]3C[C@@H](C1)N2CC3=O)C1CNc2ccccc21 (some centres undefined)	5.89 µM
COc1ccc(C2CCN(CC[C@H]3CCOc4ccccc43)CC2)cc1OC [TERIKALANT]	0.251 µM
CN(c1nccc(=O)[nH]1)C1CCN(c2nc3ccccc3n2Cc2ccc(F)cc2)CC1 [MIZOLASTINE]	0.437 µM
COc1ccc(C(=O)N2CCN(c3ccc4c(c3)CCC(=O)N4)CC2)cc1OC [VESNARINONE]	1.1 µM
C[C@@H]1CN(c2c(F)c(N)c3c(=O)c(C(=O)O)cn(C4CC4)c3c2F)C[C@H](C)N1 [SPARFLOXACIN]	18.2 µM
COc1ccc(C2CCN(CCC3CCOc4ccccc43)CC2)cc1OC (centres undefined)	0.2 µM

Same assay, conditions: human

Compound	pIC50
Cc1c(F)c(N2CCNC(C)C2)cc2c1c(=O)c(C(=O)O)cn2C1CC1 (centres undefined) [GREPAFLOXACIN]	[…]
